Here are results for 8 molecules from ChEMBL document CHEMBL1130750, “Heteroatom-substitution as a strategy for increasing the potency of competitive NMDA antagonists” (Bioorg Med Chem Lett, 1998).

The structures appear in SMILES notation.

One assay deals with Mus musculus. Nature of the assay: In vivo minimum effective dose required to block NMDA induced lethality in Mice following i.p. administration. The following applies: ip, read-out: MED. It is filed as functional.
Assay [1] concerns the target Glutamate NMDA receptor. The assay can be described thus: Compound was tested in vitro for inhibition of binding of [3H]-CGS- 19755 radioligand to NMDA receptor in rat brain membranes. The format is cell membranes.
Assay [2] addresses Glutamate NMDA receptor. The assay can be described thus: Compound was tested in vitro for its ability to inhibit depolarizations induced by 40 uM NMDA in a cortical slice (NMDA antagonist). The format is functional.
The target of assay [3] is Glutamate NMDA receptor. The assay can be described thus: In vitro ability to inhibit depolarizations induced by 40 uM NMDA in a cortical slice (NMDA antagonist). It is filed as functional.
The target in assay [4] is Glutamate NMDA receptor. The assay can be described thus: Compound was tested in vitro for its ability to inhibit depolarizations induced by 40 uM NMDA in a cortical slice(NMDA antagonist). The format is functional.
Assay [5] has as its target T1, Glutamate NMDA receptor (Rattus norvegicus) (UniProt P35439+Q00959+Q00960+Q00961+Q62645+Q8VHN2+Q9R1M7). Nature of the assay: In vitro percent inhibition of depolarizations induced by 10 uM NMDA in a cortical slice (NMDA antagonist). The format is functional.
Assay [6] has as its target T1, Glutamate NMDA receptor (Rattus norvegicus). Nature of the assay: In vitro percent inhibition of depolarizations induced by 3.2 uM NMDA in a cortical slice ( NMDA antagonist). It is filed as functional.

The IC50 is the concentration that inhibits the measured activity by half. A low value points to inhibition by little substance. `O=C(O)[C@H]1C[C@@H](OCc2nn[nH]n2)CCN1`: the minimal effective dose with Mus musculus was determined as 2.5 mg/kg. Besides, the IC50 stood at 280 nM at Glutamate NMDA receptor [1] and 4700 nM on Glutamate NMDA receptor [2].
Consider `O=C(O)[C@H]1C[C@@H](CCCc2nnn[nH]2)CCN1`, for which, in the assay on Mus musculus, the minimal effective dose came to 10 mg/kg. This molecule came in with an IC50 on Glutamate NMDA receptor [3] of 12400 nM.
Turning to `O=C(O)[C@H]1C[C@@H](Cc2nnn[nH]2)CCN1`, in the assay with Mus musculus, the minimal effective dose was found to be 5 mg/kg. Moreover, at Glutamate NMDA receptor [1], the IC50 stood at 17 nM.
On to `O=C(O)[C@H]1C[C@@H](CSc2nn[nH]n2)CCN1`, for which, on Glutamate NMDA receptor [1], the concentration for half-maximal inhibition (IC50) stood at 1300 nM.
For the molecule `O=C(O)[C@H]1C[C@@H](CCc2nnn[nH]2)CCN1`, the minimal effective dose in the assay on Mus musculus was 20 mg/kg. Further, the IC50 at Glutamate NMDA receptor [4] was 8100 nM; at Glutamate NMDA receptor [1] it was 2300 nM.
Consider `O=C(O)[C@H]1C[C@@H](Sc2nn[nH]n2)CCN1`, for which, at Glutamate NMDA receptor [1], the IC50 worked out at 110 nM.
Broadly, the inhibition is the percentage by which the read-out fell short of the control. High values mean a strong effect, low ones a weak effect. As for `O=C(O)[C@H]1C[C@H](Sc2nn[nH]n2)CCN1`, the inhibition was found to be 75% in assay [5] and 20% in assay [6]. Further, on Glutamate NMDA receptor [1], the IC50 stood at 75 nM.
For `O=C(O)[C@H]1C[C@@H](COCc2nn[nH]n2)CCN1`, the minimal effective dose in the assay with Mus musculus came out at 80 mg/kg. Besides, the IC50 at Glutamate NMDA receptor [1] amounted to 8300 nM; at Glutamate NMDA receptor [2], 34500 nM.
